Source: patent publication US9481712B2, “Peptidomimetics possessing photo-controlled biological activity” (priority 2013, dated 2016)
Values after ≈ are worked out from the molar mass of the structure shown. *1 amine or outer side, *2 acyl side, *3 side chain or, on linkers, in order; H or OH if unused. Where a SMILES comes first, the peptide text is derived from it. Bridges are numbered along the chain shown (N, C = ends). [ ]: non-standard residue; d: D form. X2 = CC12SC(C(=O)NN[*:2])=CC1=C1CCCC1=C1C=C(C(=O)[*:1])SC12C; X1 = Cc1sc(C(=O)NN[*:2])cc1C1=C(c2cc(C(=O)[*:1])sc2C)CCC1; Orn = NCCC[C@H](N)C(=O)O

Key:
[1] = system: Escherichia coli DSM 1103; type: cell-based
Protocol: (§1) The antimicrobial activities of GS and its analogues were measured using broth microdilution assay using a standard protocol [Daniel Amsterdam (1996). Susceptibility testing of antimicrobials in liquid media. In: Antibiotics in laboratory medicine, Loman, V., ed., 4th ed. Williams and Wilkins, Baltimore, Md., pp. 52-111]. The peptidomimetic compounds were tested against bacteria strains Escherichia coli DSM 1103, Staphylococcus aureus DSM 1104, Staphylococcus epidermidis DSM 1708, and Staphylococcus xylosus DSM 20267. GS analogues in the “closed” form were prepared in advance by RP-HPLC and stored protecting them from light. The corresponding minimal inhibitory concentrations (MIC) are listed in Table 2, where a small MIC value indicates a high antimicrobial activity, and vice versa.

[2] = system: Staphylococcus aureus DSM 1104; type: cell-based
Protocol: as §1

[3] = system: Staphylococcus epidermidis DSM 1708; type: cell-based
Protocol: as §1

[4] = system: Staphylococcus xylosus DSM 20267; type: cell-based
Protocol: as §1

erythrocytes = type: cell-based, human; conditions: pH 7.6
Protocol: To test the hemolytic activities of GS and its analogues, conserved human blood samples were obtained from Karlsruhe municipal hospital and washed four times in Tris buffer, pH 7.6, at 4° C. Aliquots of the blood cells were incubated with different concentrations of the peptide/peptidomimetics for 30 min at 37° C. and subsequently centrifuged. The absorption of the supernatant at 540 nm gives the extent of hemolysis, relative to 0% as taken from the peptide-free control and 100% after treatment with Triton X-100 (not to interfere with this analysis, the samples with GS analogues in the “closed” form were back-converted to their “open” forms by 30 min exposure to the visible light). The HC50 values, where 50% of the erythrocytes were lysed, were determined from the concentration dependent curves and are listed in Table 3. Small HC50 values indicate a high hemolytic activity, and vice versa. […] This proves by several independent assays that the biological activities of the photo-switchable GS analogues could be controlled by light.

[5] = photo-conversion from "closed" to "open" form by visible light (RP-HPLC); type: physicochemical
Protocol: The reverse photo-conversion of the peptidomimetic GS-Sw(FP) from the “closed” to the “open” form by visible light was also tested. A solution of peptide in the pink-colored “closed”-form (in a water-acetonitrile mixture, 3:1, 100 μg/ml) was used. The conversion of the peptidomimetic from the “closed”-form to the “open”-form was determined by RP-HPLC (analytical C18 column, linear A:B gradient of 4% B/min, 1.5 ml/min flow rate) after 0.25, 1.5, 5.5, 7.5 min of irradiation by visible light. A bright halogen lamp (250 Watts) was used, and the solutions were placed in 10 cm distance from the light source. The obtained data fitted well to the exponential equation y=[…], where y is a conversion of “closed” form into the “open” form, t is the time of the illumination and r is the half-conversion time. […] The conversion from “closed” to “open” could be achieved to 100%.

Staphylococcus xylosus = assay: photo-activation on bacterial lawn (FIG. 5); type: cell-based; conditions: 6 or 8 μg/ml "closed" form converted 60% or 80% by visible light; 37° C. for 18 hours
Text: The compound was applied to the bacterial lawn at different concentrations and then irradiated by visible light. Some geometrical shapes were cut out from a paper covering the entire Petri dish, such that the photo-switchable compound was converted into the “open” form only in those small areas exposed to the light. […] One further experiment aimed at finding these optimal conditions for treatment with the peptidomimetic GS-SwFP is illustrated in FIG. 5.

[6] = 250 W halogen lamp, 10 cm, water-acetonitrile 3:1, 100 μg/ml, from exponential fit

| minimal inhibitory concentration (MIC) [1] [µg/mL] | minimal inhibitory concentration (MIC) [2] [µg/mL] | minimal inhibitory concentration (MIC) [3] [µg/mL] | minimal inhibitory concentration (MIC) [4] [µg/mL] | achievable conversion from "closed" to "open" [5] [%] | time of illumination to achieve 60% transformation "closed" to "open" [5, 6] [min] | time of illumination to achieve 80% conversion "closed" to "open" [5, 6] [min] | SMILES | H50 (50% of hemolysis) (erythrocytes) | antimicrobial effect on bacterial lawn after activation to "open" form (Staphylococcus xylosus) |
| --- | --- | --- | --- | --- | --- | --- | --- | --- | --- |
| >128 | 32 (≈ 25.8 µM) | 64 (≈ 51.5 µM) | 32 (≈ 25.8 µM) |  |  |  | CC(C)C[C@@H]1NC(=O)[C@H](CCCN)NC(=O)[C@H](C(C)C)NC(=O)[C@@H]2CCCN2C(=O)[C@@H](Cc2ccccc2)NC(=O)[C@H](CC(C)C)NC(=O)[C@H](CCCN)NC(=O)[C@H](C(C)C)NC(=O)C2=CC3=C4CCCC4=C4C=C(SC4(C)C3(C)S2)C(=O)NNC1=O (stereo partly drawn) [GS-Sw(FP), “closed”, cyclo(^DFPVOL-1b-VOL)] | 72 µg/mL |  |
| >128 | 8 (≈ 6.53 µM) | 16 (≈ 13.1 µM) | 8 (≈ 6.53 µM) |  |  |  | Cc1sc2cc1C1=C(CCC1)c1cc(sc1C)C(=O)N1CCC[C@H]1C(=O)N[C@@H](C(C)C)C(=O)N[C@@H](CCCN)C(=O)N[C@@H](CC(C)C)C(=O)N[C@H](Cc1ccccc1)C(=O)N1CCC[C@H]1C(=O)N[C@@H](C(C)C)C(=O)N[C@@H](CCCN)C(=O)NNC2=O [GS-Sw(LF), “open”, cyclo(^DFPVO-1b-PVOL)] (PV[Orn]L[dF]PV[Orn]; linker N-C via X1) | 47 µg/mL |  |
| >128 | 16 (≈ 12.4 µM) | 32 (≈ 24.8 µM) | 32 (≈ 24.8 µM) |  |  |  | CC(C)C[C@@H]1NC(=O)[C@H](CCCN)NC(=O)[C@H](C(C)C)NC(=O)[C@@H]2CCCN2C(=O)[C@@H](Cc2ccccc2)NC(=O)[C@H](CC(C)C)NC(=O)[C@H](CCCN)NC(=O)C2=CC3=C4CCCC4=C4C=C(SC4(C)C3(C)S2)C(=O)NNC(=O)[C@@H](Cc2ccccc2)NC1=O (stereo partly drawn) [GS-Sw(PV), “closed”, cyclo(^DFPVOL^DF-1b-OL)] ([Orn]L[dF]PV[Orn]L[dF]; linker N-C via X2) | 58 µg/mL |  |
| 128 (≈ 103 µM) | 4 (≈ 3.22 µM) | 8 (≈ 6.44 µM) | 8 (≈ 6.44 µM) |  |  |  | Cc1sc2cc1C1=C(CCC1)c1cc(sc1C)C(=O)N[C@@H](C(C)C)C(=O)N[C@@H](CCCN)C(=O)N[C@@H](CC(C)C)C(=O)N[C@H](Cc1ccccc1)C(=O)N1CCC[C@H]1C(=O)N[C@@H](C(C)C)C(=O)N[C@@H](CCCN)C(=O)N[C@@H](CC(C)C)C(=O)NNC2=O [GS-Sw(FP), “open”, cyclo(^DFPVOL-1b-VOL)] | 6.5 µg/mL |  |
|  |  |  |  | 100 | 7.5 | 12.5 | Cc1sc2cc1C1=C(CCC1)c1cc(sc1C)C(=O)N[C@@H](C(C)C)C(=O)N[C@@H](CCCN)C(=O)N[C@@H](CC(C)C)C(=O)N[C@H](Cc1ccccc1)C(=O)N1CCC[C@H]1C(=O)N[C@@H](C(C)C)C(=O)N[C@@H](CCCN)C(=O)N[C@@H](CC(C)C)C(=O)NNC2=O [GS-Sw(FP), cyclo(^DFPVOL-1b-VOL)] |  | pronounced antimicrobial activity |
| 64 (≈ 52.2 µM) | 128 (≈ 104 µM) | 128 (≈ 104 µM) | 128 (≈ 104 µM) |  |  |  | CC(C)C[C@@H]1NC(=O)[C@H](CCCN)NC(=O)[C@H](C(C)C)NC(=O)[C@@H]2CCCN2C(=O)C2=CC3=C4CCCC4=C4C=C(SC4(C)C3(C)S2)C(=O)NNC(=O)[C@H](CCCN)NC(=O)[C@H](C(C)C)NC(=O)[C@@H]2CCCN2C(=O)[C@@H](Cc2ccccc2)NC1=O (stereo partly drawn) [GS-Sw(LF), “closed”, cyclo(^DFPVO-1b-PVOL)] (PV[Orn]L[dF]PV[Orn]; linker N-C via X2) | >>128 μg/ml |  |
| >128 | 4 (≈ 3.1 µM) | 4 (≈ 3.1 µM) | 4 (≈ 3.1 µM) |  |  |  | Cc1sc2cc1C1=C(CCC1)c1cc(sc1C)C(=O)N[C@@H](CCCN)C(=O)N[C@@H](CC(C)C)C(=O)N[C@H](Cc1ccccc1)C(=O)N1CCC[C@H]1C(=O)N[C@@H](C(C)C)C(=O)N[C@@H](CCCN)C(=O)N[C@@H](CC(C)C)C(=O)N[C@H](Cc1ccccc1)C(=O)NNC2=O [GS-Sw(PV), “open”, cyclo(^DFPVOL^DF-1b-OL)] ([Orn]L[dF]PV[Orn]L[dF]; linker N-C via X1) | 6 µg/mL |  |

| SMILES | minimal inhibitory concentration (MIC) [1] [µg/mL] | minimal inhibitory concentration (MIC) [2] [µg/mL] | minimal inhibitory concentration (MIC) [3] [µg/mL] | minimal inhibitory concentration (MIC) [4] [µg/mL] | achievable conversion from "closed" to "open" [5] [%] | time of illumination to achieve 60% transformation "closed" to "open" [5, 6] [min] | time of illumination to achieve 80% conversion "closed" to "open" [5, 6] [min] | H50 (50% of hemolysis) (erythrocytes) | antimicrobial effect on bacterial lawn after activation to "open" form (Staphylococcus xylosus) |
| --- | --- | --- | --- | --- | --- | --- | --- | --- | --- |
| CC(C)C[C@@H]1NC(=O)[C@H](CCCN)NC(=O)[C@H](C(C)C)NC(=O)[C@@H]2CCCN2C(=O)[C@@H](Cc2ccccc2)NC(=O)[C@H](CC(C)C)NC(=O)[C@H](CCCN)NC(=O)[C@H](C(C)C)NC(=O)[C@@H]2CCCN2C(=O)[C@@H](Cc2ccccc2)NC1=O [GS, [PVOL^DFPVOL^DF]cyclo, reference compound] (cyclo(L[dF]PV[Orn]L[dF]PV[Orn])) | 8 (≈ 7.01 µM) | 2 (≈ 1.75 µM) | 2 (≈ 1.75 µM) | 1 (≈ 0.876 µM) |  |  |  | 12 µg/mL |  |
